# According to patent publication US8748594B2, “Process for the preparation and purification of topiramate” (Scinopharm Taiwan, Ltd., priority 2010, dated 2014):
# Assay: Solubility of topiramate in the first organic solvent (xylene, toluene)
# Format: physicochemical
# Description: It was further observed that the yield during the precipitation step can be improved when using xylene instead of toluene in the present invention. This is attributed to the fact that topiramate is less soluble in xylene compared to toluene. The solubility of topiramate in xylene was detected to be 0.0025 mg per mg xylene whereas the solubility of topiramate in toluene is 0.008 mg per mg solvent. Therefore, when using xylene as the first solvent in the present invention, the loss of topiramate in the mother liquid can be reduced.
compound,measurement,setting,value
"CC1(C)O[C@@H]2[C@@H](CO[C@@]3(COS(N)(=O)=O)OC(C)(C)O[C@@H]23)O1 [topiramate, 2,3:4,5-bis-O-(1-methylethylidene)-β-D-fructopyranose sulfamate]",solubility of topiramate in toluene,solvent toluene,0.008 mg per mg solvent
same,solubility of topiramate in xylene,solvent xylene,0.0025 mg per mg xylene
